The results in this text go back to patent US20230406831A1, “COMPOUNDS AND METHODS OF INHIBITING BACTERIAL CHAPERONIN SYSTEMS” (THE TRUSTEES OF INDIANA UNIVERSITY, priority 2020, published 2023).

Experiment [1] has as its target T1, native MDH (Sus scrofa, UniProt P00346).
T1 construct: soluble pig heart MDH from Roche, product #10127248001; purchased Roche 10127248001; host or cells: pig heart
T1 sequence (P00346 25-338): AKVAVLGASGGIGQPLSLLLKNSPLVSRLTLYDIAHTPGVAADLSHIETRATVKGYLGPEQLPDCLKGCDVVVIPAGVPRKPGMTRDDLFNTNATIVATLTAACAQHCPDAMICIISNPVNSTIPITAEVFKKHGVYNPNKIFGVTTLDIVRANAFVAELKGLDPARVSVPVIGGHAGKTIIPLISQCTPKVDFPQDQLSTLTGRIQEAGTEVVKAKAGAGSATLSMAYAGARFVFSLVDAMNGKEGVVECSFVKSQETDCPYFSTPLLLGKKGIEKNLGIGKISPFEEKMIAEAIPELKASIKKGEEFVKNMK
The experiment is described as follows: Native MDH enzymatic activity counter-screen. The class given is biochemical, pig. The conditions noted are these: Table 2; compounds added after refolding and EDTA quench; read-out: Biochemical Assay IC50 Native MDH Activity. Here is the method: Counter-screening compounds for inhibition of native MDH enzymatic activity.
Reagent Preparations & Assay Protocol: This assay was performed as described above for the GroEL/ES-dMDH refolding assay; however, the assay protocol differed in the sequence of compound addition to the assay plates. The refolding reactions were allowed to proceed for 45 min at 37° C. in the absence of test compounds (complete refolding of MDH occurs), then quenched with the EDTA stock. Compounds were then pin-transferred into the plates after the EDTA quenching step; thus, compounds effects are only possible by inhibiting the fully-refolded MDH reporter substrate. Next enzymatic activity of the refolded MDH was initiated by addition of 20 μL MDH enzymatic assay stock (20 mM sodium mesoxalate and 2.4 mM NADH in reaction buffer, 50 mM Tris pH 7.4, 50 mM KCl, 1 mM DTT), and followed by measuring the NADH absorbance in each well at 340 nm using a Molecular Devices SpectraMax Plus384 microplate reader
A340 nm measurements were recorded at 0.5 minutes (start point) and at successive time points until the amount of NADH consumed reached ˜90% (end point, generally between 20-35 minutes). Compounds were tested in 8-point, 3-fold dilution series (62.5 μM to 29 nM during the reporter reaction) in clear, flat-bottom 384-well microtiter plates.
DMSO was used as a negative control, and previously discovered native MDH inhibitors were used as positive controls. IC50 values for the test compounds were obtained by plotting the % inhibition results in GraphPad Prism 6 and analyzing by non-linear regression using the log (inhibitor) vs. response (variable slope) equation. Results presented represent the averages of IC50 values obtained from at least quadriplicate (duplicate of duplicate) replicates.
Background: Counterscreens check selectivity or assay interference.

The target in experiment [2] is T2, GroEL/ES (Escherichia coli, UniProt P0A6F5).
T2 construct: made in house; host or cells: GroEL in E. coli DH5a; GroES in E. coli BL21 (DE3)
In words: GroEL/ES-mediated dMDH refolding assay. The class given is biochemical, E. coli. Here is the method:
Evaluation of compounds ability to inhibit GroEL/ES and HSP60/10-mediated dMDH refolding assays.
Reagent preparation: For these assays, four primary reagent stocks were prepared: 1) GroEL/ES-dMDH or HSP60/10-dMDH binary complex stock; 2) ATP initiation stock; 3) EDTA quench stock; 4) MDH enzymatic assay stock. Denatured MDH (dMDH) was prepared by 2-fold dilution of MDH (5 mg/ml, soluble pig heart MDH from Roche, product #10127248001) with denaturant buffer (7 M guanidine-HCl, 200 mM Tris, pH 7.4, and 50 mM DTT). MDH was completely denatured by incubating at room temperature for 45 min. The binary complex solutions were prepared by slowly adding the dMDH stock to a stirring stock with GroEL (or HSP60) in folding buffer (50 mM Tris-HCl, pH 7.4, 50 mM KCl, 10 mM MglC2, and 1 mM DTT), followed by addition of GroES (or HSP10). The binary complex stocks were prepared immediately prior to dispensing into the assay plates and had final protein concentrations of 83.3 nM GroEL (Mr 800 kDa) or HSP60 (Mr 400 kDa), 100 nM GroES or HSP10 (Mr 70 kDa), and 20 nM dMDH in folding buffer. For the ATP initiation stock, ATP solid was diluted into folding buffer to a final concentration of 2.5 mM. Quench solution contained 600 mM EDTA (pH 8.0). The MDH enzymatic assay stock consisted of 20 mM sodium mesoxalate and 2.4 mM NADH in reaction buffer (50 mM Tris-HCl, pH 7.4, 50 mM KC1, and 1 mM DTT).
Assay Protocol: First, 30 μL aliquots of the GroEL/ES-dMDH or HSP60/10-dMDH binary complex stocks were dispensed into clear, 384-well polystyrene plates. Next, 0.5 μL of the compound stocks (10 mM to 4.6 μM, 3-fold dilutions series in DMSO) were added by pin-transfer (V&P Scientific). The chaperonin-mediated refolding cycles were initiated by addition of 20 IA of ATP stock (reagent concentrations during refolding cycle: 50 nM GroEL or HSP60, 60 nM GroES or HSP10, 12 nM dMDH, 1 mM ATP, and compounds of 100 μM to 46 nM, 3-fold dilution series). The refolding reactions were incubated at 37° C. The incubation time was determined from refolding time-course control experiments until they reached ˜90% completion of refolding cycle — generally ˜20-40 min for GroEL/ES, and ˜40-60 min for HSP60/10). Next, the assay was quenched by addition of 10 μL of the EDTA to final concentration of 100 mM. […] A340 nm measurements were recorded at 0.5 minutes (start point) and at successive time points until the amount of NADH consumed reached ˜90% (end point, generally between 20-35 minutes). The differences between the start and end point A340 values were used to calculate the % inhibition of the GroEL/ES or HSP60/10 machinery by the compounds. IC50 values for the test compounds were obtained by plotting the % inhibition results in GraphPad Prism 6 and analyzing by non-linear regression using the log (inhibitor) vs. response (variable slope) equation. Results presented represent the averages of IC50 values obtained from at least quadriplicate (duplicate of duplicate) replicates. For results, see Tables 1, 2, and 3.

T2 sequence (P0A6F5 2-548): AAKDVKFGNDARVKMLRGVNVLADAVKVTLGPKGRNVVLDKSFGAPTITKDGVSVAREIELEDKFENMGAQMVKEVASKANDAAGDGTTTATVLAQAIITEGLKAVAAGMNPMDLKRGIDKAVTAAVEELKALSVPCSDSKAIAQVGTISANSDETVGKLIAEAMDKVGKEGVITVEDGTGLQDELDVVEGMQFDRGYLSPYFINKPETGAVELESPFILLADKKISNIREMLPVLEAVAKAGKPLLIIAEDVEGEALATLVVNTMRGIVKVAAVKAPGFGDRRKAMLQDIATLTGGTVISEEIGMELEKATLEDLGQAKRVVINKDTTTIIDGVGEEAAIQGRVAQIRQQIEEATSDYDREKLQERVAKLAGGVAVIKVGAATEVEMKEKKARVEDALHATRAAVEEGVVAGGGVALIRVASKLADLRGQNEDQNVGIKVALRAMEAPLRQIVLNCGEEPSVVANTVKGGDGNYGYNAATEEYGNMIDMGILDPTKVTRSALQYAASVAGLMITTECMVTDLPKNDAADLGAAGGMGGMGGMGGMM

Turning to `COc1cccc(C(=O)Nc2cc(Cl)c(C(C#N)c3ccc(Cl)cc3)cc2C)c1` (stereo not shown) [Compound 62, N-(5-chloro-4-((4-chlorophenyl)(cyano)methyl)-2-methylphenyl)-3-methoxybenzamide], the 50% inhibitory concentration (IC50) in experiment [1] is more than 63 µM; in experiment [2], 67 µM.

In the case of `COc1ccc(C(=O)Nc2cc(Cl)c(C(C#N)c3ccc(Cl)cc3)cc2C)cc1` (stereo not shown) [Compound 63, N-(5-chloro-4-((4-chlorophenyl)(cyano)methyl)-2-methylphenyl)-4-methoxybenzamide], the IC50 was more than 63 µM in experiment [1] and 65 µM in experiment [2].

`Cc1cc(C(C#N)c2ccc(Cl)cc2)c(Cl)cc1NC(=O)c1ccccc1O` (stereo not shown) [Compound 64, N-(5-chloro-4-((4-chlorophenyl)(cyano)methyl)-2-methylphenyl)-2-hydroxybenzamide]: the figures for the IC50 in experiment [1] and in experiment [2] were more than 63 µM and 33 µM, respectively.

Consider `Cc1cc(C(C#N)c2ccc(Cl)cc2)c(Cl)cc1NC(=O)c1cccc(O)c1` (stereo not shown) [Compound 65, N-(5-chloro-4-((4-chlorophenyl)(cyano)methyl)-2-methylphenyl)-3-hydroxybenzamide], for which the IC50 in experiment [1] is more than 63 µM; in experiment [2], 55 µM.

Regarding `Cc1cc(C(C#N)c2ccc(Cl)cc2)c(Cl)cc1NC(=O)c1ccc(O)cc1` (stereo not shown) [Compound 66, N-(5-chloro-4-((4-chlorophenyl)(cyano)methyl)-2-methylphenyl)-4-hydroxybenzamide], the figures for the IC50 in experiment [1] and in experiment [2] were more than 63 µM and 47 µM, respectively.

For the compound `Cc1cc(C(C#N)c2ccc(Cl)cc2)c(Cl)cc1NC(=O)c1ccccc1[N+](=O)[O-]` (stereo not shown) [Compound 67, N-(5-chloro-4-((4-chlorophenyl)(cyano)methyl)-2-methylphenyl)-2-nitrobenzamide], the IC50 was more than 63 µM in experiment [1] and 43 µM in experiment [2].

As for `Cc1cc(C(C#N)c2ccc(Cl)cc2)c(Cl)cc1NC(=O)c1cccc([N+](=O)[O-])c1` (stereo not shown) [Compound 68, N-(5-chloro-4-((4-chlorophenyl)(cyano)methyl)-2-methylphenyl)-3-nitrobenzamide], the IC50 is more than 63 µM in experiment [1] and 43 µM in experiment [2].

`Cc1cc(C(C#N)c2ccc(Cl)cc2)c(Cl)cc1NC(=O)c1ccc([N+](=O)[O-])cc1` (stereo not shown) [Compound 69, N-(5-chloro-4-((4-chlorophenyl)(cyano)methyl)-2-methylphenyl)-4-nitrobenzamide]: the 50% inhibitory concentration (IC50) was more than 63 µM in experiment [1] and 37 µM in experiment [2].

`Cc1cc(C(C#N)c2ccc(Cl)cc2)c(Cl)cc1NC(=O)c1ccccc1N` (stereo not shown) [Compound 70, 2-amino-N-(5-chloro-4-((4-chlorophenyl)(cyano)methyl)-2-methylphenyl)benzamide]: the values for the IC50 in experiment [1] and in experiment [2] were more than 63 µM and 44 µM, respectively.

Regarding `Cc1cc(C(C#N)c2ccc(Cl)cc2)c(Cl)cc1NC(=O)c1cccc(N)c1` (stereo not shown) [Compound 71, 3-amino-N-(5-chloro-4-((4-chlorophenyl)(cyano)methyl)-2-methylphenyl)benzamide], the concentration for half-maximal inhibition (IC50) in experiment [1] is more than 63 µM; in experiment [2], 51 µM.

Take `Cc1cc(C(C#N)c2ccc(Cl)cc2)c(Cl)cc1NC(=O)c1ccc(N)cc1` (stereo not shown) [Compound 72, 4-amino-N-(5-chloro-4-((4-chlorophenyl)(cyano)methyl)-2-methylphenyl)benzamide]: the IC50 in experiment [1] was more than 63 µM; in experiment [2], 47 µM.

As for `Cc1cc(C(C#N)c2ccc(Cl)cc2)c(Cl)cc1NC(=O)c1ccccc1Br` (stereo not shown) [Compound 73, 2-bromo-N-(5-chloro-4-((4-chlorophenyl)(cyano)methyl)-2-methylphenyl)benzamide], the values for the IC50 in experiment [1] and in experiment [2] were more than 63 µM and 53 µM, respectively.

For `Cc1cc(C(C#N)c2ccc(Cl)cc2)c(Cl)cc1NC(=O)c1cccc(Br)c1` (stereo not shown) [Compound 74, 3-bromo-N-(5-chloro-4-((4-chlorophenyl)(cyano)methyl)-2-methylphenyl)benzamide], the concentration for half-maximal inhibition (IC50) was more than 63 µM in experiment [1] and 50 µM in experiment [2].

As for `Cc1cc(C(C#N)c2ccc(Cl)cc2)c(Cl)cc1NC(=O)c1ccc(Br)cc1` (stereo not shown) [Compound 75, 4-bromo-N-(5-chloro-4-((4-chlorophenyl)(cyano)methyl)-2-methylphenyl)benzamide], the results for the IC50 in experiment [1] and in experiment [2] were more than 63 µM and 58 µM, respectively.

Regarding `Cc1cc(C(C#N)c2ccc(Cl)cc2)c(Cl)cc1NC(=O)c1ccccc1Cl` (stereo not shown) [Compound 76, 2-chloro-N-(5-chloro-4-((4-chlorophenyl)(cyano)methyl)-2-methylphenyl)benzamide], the half-inhibitory concentration (IC50) is more than 63 µM in experiment [1] and 54 µM in experiment [2].

Take `Cc1cc(C(C#N)c2ccc(Cl)cc2)c(Cl)cc1NC(=O)c1cccc(Cl)c1` (stereo not shown) [Compound 77, 3-chloro-N-(5-chloro-4-((4-chlorophenyl)(cyano)methyl)-2-methylphenyl)benzamide]: the figures for the IC50 in experiment [1] and in experiment [2] were more than 63 µM and 63 µM, respectively.

Regarding `Cc1cc(C(C#N)c2ccc(Cl)cc2)c(Cl)cc1NC(=O)c1ccc(Cl)cc1` (stereo not shown) [Compound 78, 4-chloro-N-(5-chloro-4-((4-chlorophenyl)(cyano)methyl)-2-methylphenyl)benzamide], the half-inhibitory concentration (IC50) in experiment [1] is more than 63 µM; in experiment [2], 63 µM.

As to `Cc1cc(C(C#N)c2ccc(Cl)cc2)c(Cl)cc1NC(=O)c1ccccc1F` (stereo not shown) [Compound 79, N-(5-chloro-4-((4-chlorophenyl)(cyano)methyl)-2-methylphenyl)-2-fluorobenzamide], the half-maximal inhibitory concentration (IC50) in experiment [1] was more than 63 µM; in experiment [2] it was 89 µM.

For the compound `Cc1cc(C(C#N)c2ccc(Cl)cc2)c(Cl)cc1NC(=O)c1cccc(F)c1` (stereo not shown) [Compound 80, N-(5-chloro-4-((4-chlorophenyl)(cyano)methyl)-2-methylphenyl)-3-fluorobenzamide], the 50% inhibitory concentration (IC50) in experiment [1] was more than 63 µM; in experiment [2], 78 µM.

Take `Cc1cc(C(C#N)c2ccc(Cl)cc2)c(Cl)cc1NC(=O)c1ccc(F)cc1` (stereo not shown) [Compound 81, N-(5-chloro-4-((4-chlorophenyl)(cyano)methyl)-2-methylphenyl)-4-fluorobenzamide]: the 50% inhibitory concentration (IC50) in experiment [1] was more than 63 µM; in experiment [2], 77 µM.

The IC50 is the concentration needed to halve the response being measured.
